From patent US20080132539A1, “Hydroxamic Acid Derivative And Age Generation Inhibitor Containing The Derivative” (priority 2003, published 2008)

System: Maillard reaction (lysozyme / fructose, dimer formation)
Test: Maillard reaction-inhibiting effects (lysozyme dimer formation with fructose, SDS-PAGE densitometry)
Type: biochemical
Conditions: 10 mg/mL lysozyme, 200 mM fructose, pH 7.4, 37° C., 4 days, dimer formation inhibition rate
Procedure: This Example examined Maillard reaction-inhibiting effects using, as test compounds, the compounds produced in the above-described Examples and the commercially available substances arginine hydroxamate (Compound No. 111), tyrosine hydroxamate (Compound No. 112), and tryptophan hydroxamate (Compound No. 113). More specifically, 10 mg/mL lysozyme, 200 mM fructose, and each of the above-described test compounds dissolved in a 0.4 mM sodium phosphate buffer (pH 7.4) so as to provide a concentrations of 0.1, 0.3, 1, or 3 mM were incubated at 37° C. for 4 days. After the incubation, the samples were subjected to SDS-PAGE, stained with Coomassie Brilliant Blue R-250, and quantitated for the formed dimmers using a densitometer. The Maillard reaction-inhibiting activity was defined as the dimmer formation inhibition rate of a test compound calculated on the basis that the amount of dimmer is 100% in the absence of the test compound, using, as blank, the amount of dimer in the absence of fructose and the test compound.

[1] = test compound concentration 0.1 mM
[2] = test compound concentration 0.3 mM
[3] = test compound concentration 1 mM
[4] = test compound concentration 3 mM

| Structure (SMILES) | Maillard reaction-inhibiting activity (%) [1] | Maillard reaction-inhibiting activity (%) [2] | Maillard reaction-inhibiting activity (%) [3] | Maillard reaction-inhibiting activity (%) [4] |
| --- | --- | --- | --- | --- |
| CC(C)(C)c1ccc(Cn2cc(CC(N)C(=O)NO)c3ccccc32)cc1 (racemic) [Compound No. 106, (RS)-2-amino-3-[1-(4-t-butylbenzyl)-1H-indol-3-yl]-N-hydroxypropionamide] | 94% | 95% | 97% | 95% |
| NC(Cc1cn(Cc2ccc(F)c(F)c2)c2ccccc12)C(=O)NO (racemic) [Compound No. 108, (RS)-2-amino-3-[1-(3,4-difluorobenzyl)-1H-indol-3-yl]-N-hydroxypropionamide] | 102% | 103% | 104% | 104% |
| CC(C)(C)c1ccc(NC(=O)CC[C@H](N)C(=O)NO)cc1 [Compound No. 2, (S)-2-amino-4-(4-t-butylphenylaminocarbonyl)-N-hydroxybutyramide] | 86% | 100% | 100% | 100% |
| N[C@@H](CCC(=O)NC1CCCCC1)C(=O)NO [Compound No. 5, (S)-2-amino-4-(cyclohexylaminocarbonyl)-N-hydroxybutyramide] | −3% | 5% | 35% | 97% |
| N[C@@H](CCC(=O)NCC(c1ccccc1)c1ccccc1)C(=O)NO [Compound No. 6, (S)-2-amino-4-(2,2-diphenylethylaminocarbonyl)-N-hydroxybutyramide] | 49% | 97% | 103% | 100% |
| N[C@@H](CCC(=O)NCc1ccccn1)C(=O)NO [Compound No. 7, (S)-2-amino-4-(pyridin-2-ylmethylaminocarbonyl)-N-hydroxybutyramide] | −3% | −4% | 13% | 72% |
| N[C@@H](CCCNC(=O)c1ccc([N+](=O)[O-])cc1)C(=O)NO [Compound No. 15, (S)-2-amino-5-(4-nitrobenzoylamino)pentanoic acid hydroxyamide] | −12% | −2% | 43% | 98% |
| N[C@@H](CCCNC(=O)Cc1ccc([N+](=O)[O-])cc1)C(=O)NO [Compound No. 16, (S)-2-amino-5-(4-nitrophenylacetylamino)pentanoic acid hydroxyamide] | −7% | 11% | 71% | 98% |
| N[C@@H](CCCNC(=O)CC1CCCCC1)C(=O)NO [Compound No. 19, (S)-2-amino-5-(cyclohexylacetylamino)pentanoic acid hydroxyamide] | 10% | 54% | 95% | 101% |
| CCCN(CCC)CCC[C@H](N)C(=O)NO [Compound No. 25, (S)-2-amino-5-dipropylaminopentanoic acid hydroxyamide] | 7% | 6% | 40% | 100% |
| CCCCCN(CCCCC)CCC[C@H](N)C(=O)NO [Compound No. 26, (S)-2-amino-5-dipentylaminopentanoic acid hydroxyamide] | 11% | 17% | 68% | 100% |
| N[C@@H](CCCNC1CCCCC1)C(=O)NO [Compound No. 27, (S)-2-amino-5-cyclohexylaminopentanoic acid hydroxyamide] | 1% | 7% | 32% | 100% |
| Cc1ccc(CN(CCC[C@H](N)C(=O)NO)Cc2ccc(C)cc2)cc1 [Compound No. 28, (S)-2-amino-5-[bis-(4-methyl-benzyl)amino]pentanoic acid hydroxyamide] | 100% | 100% | 100% | 100% |
| Cc1ccc(C(=O)Nc2ccc(C[C@H](N)C(=O)NO)cc2)cc1 [Compound No. 30, (S)-2-amino-3-[4-(4-methylbenzoyl)amino-phenyl]-N-hydroxypropionamide] | 56% | 74% | 80% | 92% |
| CCCCC(=O)Nc1ccc(C[C@H](N)C(=O)NO)cc1 [Compound No. 31, (S)-2-amino-3-(4-valeroylaminophenyl)-N-hydroxypropionamide] | 29% | 72% | 100% | 100% |
| CC(C)(C)C(=O)Nc1ccc(C[C@H](N)C(=O)NO)cc1 [Compound No. 32, (S)-2-amino-3-(4-pivaloylaminophenyl)-N-hydroxypropionamide] | 23% | 50% | 89% | 102% |
| N[C@@H](Cc1ccc(NC(=O)Cc2ccc(F)cc2)cc1)C(=O)NO [Compound No. 33, (S)-2-amino-3-{4-[2-(4-fluorophenyl)acetylamino]-phenyl}-N-hydroxypropionamide] | 57% | 93% | 98% | 102% |
| Cc1ccc(S(=O)(=O)Nc2ccc(C[C@H](N)C(=O)NO)cc2)cc1 [Compound No. 34, (S)-2-amino-3-[4-(toluen-4-ylsulfonylamino)phenyl]-N-hydroxypropionamide] | 37% | 98% | 102% | 102% |
| COC(=O)Nc1ccc(C[C@H](N)C(=O)NO)cc1 [Compound No. 36, (S)-2-amino-3-(4-methoxycarbonylaminophenyl)-N-hydroxypropionamide] | 15% | 33% | 69% | 102% |
| CN(C)NC(=O)c1ccc(C[C@H](N)C(=O)NO)cc1 [Compound No. 37, (S)-2-amino-3-(4-dimethylaminocarbamoyl-phenyl)-N-hydroxypropionamide] | 1% | 16% | 35% | 94% |
